The target of the experiment is T1, human P1R (Homo sapiens, UniProt Q03431).
T1 construct: expressed in transfected cells; host or cells: HKRK-B28 (porcine kidney LLC-PK1, stably transfected)
T1 sequence (Q03431 27-593): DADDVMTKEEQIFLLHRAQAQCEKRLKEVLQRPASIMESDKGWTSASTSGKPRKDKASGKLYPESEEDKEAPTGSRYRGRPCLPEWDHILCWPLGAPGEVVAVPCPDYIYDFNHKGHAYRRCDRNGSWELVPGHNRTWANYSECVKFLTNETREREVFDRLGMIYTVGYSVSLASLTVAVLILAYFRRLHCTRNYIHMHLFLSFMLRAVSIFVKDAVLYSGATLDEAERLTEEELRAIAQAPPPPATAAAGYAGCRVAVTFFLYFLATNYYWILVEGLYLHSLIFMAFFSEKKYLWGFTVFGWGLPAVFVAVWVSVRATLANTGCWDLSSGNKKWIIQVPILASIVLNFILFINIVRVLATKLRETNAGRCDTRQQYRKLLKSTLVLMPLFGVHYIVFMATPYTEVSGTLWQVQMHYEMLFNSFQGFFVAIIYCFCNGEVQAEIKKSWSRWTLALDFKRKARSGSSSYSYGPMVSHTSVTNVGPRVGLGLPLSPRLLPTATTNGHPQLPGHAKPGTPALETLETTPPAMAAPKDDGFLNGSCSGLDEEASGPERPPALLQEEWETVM
Nature of the experiment: cAMP stimulation in HKRK-B28 cells. It is filed as cell-based. The following applies: for cAMP EMax(obs.): basal 4.0 ± 0.1 pmole/well not subtracted.

Several values for one entry are separate records, joined by “and”; a condition that tells them apart may be missing. Equal entries are not always repeated. Where two headings read alike, the source gives them in different places. Square brackets hold non-standard residues; d marks the D form. Peptide text beside a SMILES is read from it. hArg = N=C(N)NCCCC[C@H](N)C(=O)O; Aib = CC(C)(N)C(=O)O

As to `CC[C@H](C)[C@H](NC(=O)[C@H](CCC(=O)O)NC(=O)C(C)(C)NC(=O)[C@@H](NC(=O)C(C)(C)N)C(C)C)C(=O)N[C@@H](CCC(N)=O)C(=O)N[C@@H](CC(C)C)C(=O)N[C@@H](CCSC)C(=O)N[C@@H](Cc1c[nH]cn1)C(=O)N[C@@H](CCC(N)=O)C(=O)N[C@@H](CCCCNC(=N)N)C(N)=O` [[Aib^1,3,M]PTH(1-11), AibValAibGluIleGlnLeuMetHisGlnHar] (H-[Aib]V[Aib]EIQLMHQ[hArg]-NH2), the EC50 (commonly the midpoint of the concentration-response curve) was 4 nM and ~6 nM; the “cAMP potency, fold greater than that of [M]PTH(1-11)” value is on record as 1,000 fold; the “cAMP EMax(obs.)” value was found to be 243 ± 15 pmole/well. Also, the “cAMP potency, fold greater than that of [M]PTH(1-11)” value (listed as [Aib^1,3,Gln^10,Har^11]PTH(1-11)) is reported as 1000 fold.
On to `CC[C@H](C)[C@H](NC(=O)[C@H](CCC(=O)O)NC(=O)[C@H](C)NC(=O)[C@@H](NC(=O)[C@H](C)N)C(C)C)C(=O)N[C@@H](CCC(N)=O)C(=O)N[C@@H](CC(C)C)C(=O)N[C@@H](CCSC)C(=O)N[C@@H](Cc1c[nH]cn1)C(=O)N[C@@H](CCC(N)=O)C(=O)N[C@@H](CCCCNC(=N)N)C(=O)N[C@@H](C)C(=O)N[C@@H](CCCCN)C(=O)N[C@@H](Cc1c[nH]c2ccccc12)C(N)=O` [[M]PTH(1-14), [Ala^3,12,Gln^10,Har^11,Trp^14]PTH(1-14)amide, reference compound] (H-AVAEIQLMHQ[hArg]AKW-NH2), for which the “cAMP potency (EC50), fold less than that of PTH(1-34)” value amounted to 40 fold; the “maximum (Emax) increase in intracellular cAMP” value was approximately 70 fold; the “cAMP EMax(obs.)” value was determined as 270 ± 8 pmole/well.
As to `CC[C@H](C)[C@H](NC(=O)[C@H](CCC(=O)O)NC(=O)C(C)(C)NC(=O)[C@@H](NC(=O)C(C)(C)N)C(C)C)C(=O)N[C@@H](CCC(N)=O)C(=O)N[C@@H](CC(C)C)C(=O)N[C@@H](CCSC)C(=O)N[C@@H](Cc1c[nH]cn1)C(=O)N[C@@H](CCC(N)=O)C(=O)N[C@@H](CCCCNC(=N)N)C(=O)N[C@@H](C)C(=O)N[C@@H](CCCCN)C(=O)N[C@@H](Cc1c[nH]c2ccccc12)C(N)=O` [[Aib^1,3,M]PTH(1-14), AibValAibGluIleGlnLeuMetHisGlnHarAlaLysTrp] (H-[Aib]V[Aib]EIQLMHQ[hArg]AKW-NH2), the EC50 was 1.1 nM and ~1 nM; the “fold more potent in stimulating cAMP formation than [M]PTH(1-14)” value is 90 fold and 100 fold; the “cAMP EMax(obs.)” value was found to be 278 ± 20 pmole/well.
Consider `CCCC[C@H](NC(=O)[C@H](CCCNC(=N)N)NC(=O)[C@H](CCC(=O)O)NC(=O)[C@@H](NC(=O)[C@H](CO)NC(=O)[C@H](C)NC(=O)[C@H](CC(C)C)NC(=O)[C@H](Cc1c[nH]cn1)NC(=O)[C@H](CCCCN)NC(=O)CNC(=O)[C@H](CC(C)C)NC(=O)[C@H](CC(N)=O)NC(=O)[C@H](Cc1c[nH]cn1)NC(=O)[C@H](CCCC)NC(=O)[C@H](CC(C)C)NC(=O)[C@H](CCC(N)=O)NC(=O)[C@@H](NC(=O)[C@H](CCC(=O)O)NC(=O)[C@H](CO)NC(=O)[C@@H](NC(=O)[C@H](C)N)C(C)C)[C@@H](C)CC)C(C)C)C(=O)N[C@@H](CCC(N)=O)C(=O)N[C@@H](Cc1c[nH]c2ccccc12)C(=O)N[C@@H](CC(C)C)C(=O)N[C@@H](CCCNC(=N)N)C(=O)N[C@@H](CCCCN)C(=O)N[C@@H](CCCCN)C(=O)N[C@@H](CC(C)C)C(=O)N[C@@H](CCC(N)=O)C(=O)N[C@@H](CC(=O)O)C(=O)N[C@H](C(=O)N[C@@H](Cc1c[nH]cn1)C(=O)N[C@@H](CC(N)=O)C(=O)N[C@@H](Cc1ccc(O)cc1)C(N)=O)C(C)C` [PTH(1-34), [Nle^8,21, Tyr^34]PTH(1-34)amide, reference compound], for which the EC50 came out at 2.5 ± 0.4 nM, the “maximum (Emax) increase in intracellular cAMP” value is reported as approximately 70 fold and the “cAMP EMax(obs.)” value is listed as 280 ± 11 pmole/well.
Consider `CC[C@H](C)[C@H](NC(=O)[C@H](CCC(=O)O)NC(=O)C(C)(C)NC(=O)[C@@H](NC(=O)C(C)(C)N)C(C)C)C(=O)N[C@@H](CCC(N)=O)C(=O)N[C@@H](CC(C)C)C(=O)N[C@@H](CCSC)C(=O)N[C@@H](Cc1c[nH]cn1)C(=O)N[C@@H](CCC(N)=O)C(N)=O` [[Aib^1,3,M]PTH(1-10), [Aib^1,3,Gln^10]PTH(1-10)] (H-[Aib]V[Aib]EIQLMHQ-NH2), for which the concentration for a half-maximal effect (EC50) amounted to 16000 ± 2000 nM; the “cAMP potency, fold more potent than [Ala^3,Gln^10]PTH(1-10)” value came out at 50 fold; the “cAMP potency, fold weaker relative to [Aib^1,3,M]PTH(1-11)” value was determined as 4000 fold; the “cAMP EMax(obs.)” value came to 111 ± 8 pmole/well.

For the origin of these results see patent US7572765B2, “Conformationally constrained parathyroid hormone (PTH) analogs” (The General Hospital Corporation, priority 2001, dated 2009).
